This note sets out measurements from patent US8268814B2, “Substituted sulfonamide compounds” (Gruenenthal GmbH, priority 2008, dated 2012).

Assay [1] deals with T1, B1R receptor of the rat (rB1R) (Rattus norvegicus, UniProt P97583).
T1 construct: expressed in transfected cells; host or cells: CHO K1 cells (Chinese hamster ovary), stably transfected
T1 sequence (P97583 1-337): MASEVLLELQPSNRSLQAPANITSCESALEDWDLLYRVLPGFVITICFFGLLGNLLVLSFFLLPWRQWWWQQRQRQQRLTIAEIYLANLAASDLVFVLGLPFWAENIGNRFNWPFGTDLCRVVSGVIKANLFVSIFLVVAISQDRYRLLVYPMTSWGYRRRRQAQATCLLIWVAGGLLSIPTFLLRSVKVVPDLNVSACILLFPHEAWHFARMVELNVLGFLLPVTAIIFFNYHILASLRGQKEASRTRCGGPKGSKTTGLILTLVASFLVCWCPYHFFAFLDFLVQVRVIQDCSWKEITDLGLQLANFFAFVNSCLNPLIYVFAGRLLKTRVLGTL
As to the kind of experiment: Functional FLIPR Ca2+ assay on the bradykinin 1 receptor, rat (rB1R CHO K1 cells). Format: cell-based. The conditions noted are these: test substance 10 μM; CHO K1 cells transfected with rat B1R gene; agonist Des-Arg9-bradykinin at EC80; % inhibition compared with maximum achievable inhibition; read-out: B1R antagonism, rat [10 μM] % inhibition. The procedure: (§1) The agonistic or antagonistic action of substances can be quantified on the bradykinin 1 receptor (B1R) of the human and rat species with ectopically expressing cell lines (CHO K1 cells) and with the aid of a Ca^2+-sensitive dyestuff (Fluo-4) in a fluorescent imaging plate reader (FLIPR). The figure in % activation is based on the Ca^2+ signal after addition of Lys-Des-Arg^9-bradykinin (0.5 nM) or Des-Arg^9-bradykinin (100 nM). Antagonists lead to a suppression of the Ca^2+ inflow after addition of the agonist. % inhibition compared with the maximum achievable inhibition is stated.
(§2) The agonistic or antagonistic action of substances can be determined on the bradykinin 1 receptor (B1R) of the human and rat species with the following assay. In accordance with this assay, the Ca^2+ inflow through the channel is quantified with the aid of a Ca^2+-sensitive dyestuff (type Fluo-4, Molecular Probes Europe BV, Leiden, Holland) in a fluorescent imaging plate reader (FLIPR, Molecular Devices, Sunnyvale, USA).
(§3) Chinese hamster ovary cells (CHO K1 cells) transfected stably with the human B1R gene (hB1R cells) or the B1R gene of the rat (rB1R cells) are used. For functional studies, these cells are plated out on black 96-well plates with a clear base (BD Biosciences, Heidelberg, Germany or Greiner, Frickenhausen, Germany) in a density of 20,000-35,000 cells/well. The cells are left overnight at 37° C. and 5% CO2 in culture medium (hB1R cells: Nutrient Mixture Ham's F12, Gibco Invitrogen GmbH, Karlsruhe, Germany or DMEM, Sigma-Aldrich, Taufkirchen, Germany; rB1R cells: D-MEM/F12, Gibco Invitrogen GmbH, Karlsruhe, Germany) with 10 vol. % FBS (foetal bovine serum, Gibco Invitrogen GmbH, Karlsruhe, Germany or PAN Biotech GmbH, Aidenbach, Germany). On the following day, the cells are loaded for 60 min at 37° C. with 2.13 μM Fluo-4 (Molecular Probes Europe BV, Leiden, Holland) in HBSS buffer (Hank's buffered saline solution, Gibco Invitrogen GmbH, Karlsruhe, Germany) with 2.5 mM probenecid (Sigma-Aldrich, Taufkirchen, Germany) and 10 mM HEPES (Sigma-Aldrich, Taufkirchen, Germany). The plates are then washed 2× with HBSS buffer, and HBSS buffer which additionally contains 0.1% BSA (bovine serum albumin; Sigma-Aldrich, Taufkirchen, Germany), 5.6 mM glucose and 0.05% gelatine (Merck KgaA, Darmstadt, Germany) is added. After a further incubation of 20 minutes at room temperature, the plates are inserted into the FLIPR for the Ca^2+ measurement.
(§4) Alternatively, the plates are washed with buffer A (15 mM HEPES, 80 mM NaCl, 5 mM KCl, 1.2 mM CaCl2, 0.7 mM MgSO4, 2 g/l glucose, 2.5 mM probenecid), buffer A is added and the plates are loaded with 2.5 μM Fluo-4 and 0.025% Pluronic F127 (Sigma-Aldrich, Taufkirchen, Germany). Thereafter, the cells are washed 2× with buffer A and incubated for 30 minutes with buffer A, which additionally contains 0.05% BSA and 0.05% gelatine, at room temperature and thereafter inserted into the FLIPR for the Ca^2+ measurement. The Ca^2+-dependent fluorescence is measured here before and after addition of substances (λex=488 nm, λem=540 nm). Quantification is by measurement of the highest fluorescence intensity (FC, fluorescence counts) over time.
(§5) The FLIPR protocol consists of 2 additions of substance. Test substances (10 μM) are first pipetted on to the cells and the Ca^2+ inflow is compared with the control (hB1R: Lys-Des-Arg^9-bradykinin >=50 nM; rB1R: Des-Arg^9-bradykinin 10 μM). This gives the figure in % activation based on the Ca^2+ signal after addition of Lys-Des-Arg^9-bradykinin (>=50 nM) or Des-Arg^9-bradykinin (10 μM). After incubation for 10-20 minutes, Lys-Des-Arg^9-bradykinin (hB1R) or Des-Arg^9-bradykinin (rB1R) in the concentration of the EC80 is applied and the inflow of Ca^2+ is likewise determined. Antagonists lead to a suppression of the Ca^2+ inflow. % inhibition compared with the maximum achievable inhibition is calculated. In order to determine the IC50 value, the substances are added in various concentrations. […]

The target of assay [2] is T2, human B1R receptor (hB1R) (Homo sapiens, UniProt P46663).
T2 construct: expressed in transfected cells; host or cells: CHO K1 cells (Chinese hamster ovary), stably transfected
T2 sequence (P46663 1-353): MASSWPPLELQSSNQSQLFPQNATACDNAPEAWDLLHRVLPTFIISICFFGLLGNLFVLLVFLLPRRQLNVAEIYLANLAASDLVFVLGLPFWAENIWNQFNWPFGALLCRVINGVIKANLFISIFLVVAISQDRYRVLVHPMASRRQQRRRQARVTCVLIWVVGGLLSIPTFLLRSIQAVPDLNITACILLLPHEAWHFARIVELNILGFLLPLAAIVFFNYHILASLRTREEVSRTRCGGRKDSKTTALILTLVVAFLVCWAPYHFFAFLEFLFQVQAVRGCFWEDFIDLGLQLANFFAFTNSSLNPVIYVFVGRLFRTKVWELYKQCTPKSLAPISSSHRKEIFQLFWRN
As to the kind of experiment: Functional FLIPR Ca2+ assay on the bradykinin 1 receptor, human (hB1R CHO K1 cells). Type of assay: cell-based. The conditions noted are these: test substance 10 μM; CHO K1 cells transfected with human B1R gene; agonist Lys-Des-Arg9-bradykinin at EC80; % inhibition compared with maximum achievable inhibition; read-out: B1R antagonism, human (10 μM] % inhibition. Here is the method:
as §1, §2, §3, §4, §5

In general, inhibition refers to the relative decrease from the control value, in per cent. Regarding `COc1cc(C)c(S(=O)(=O)N2CCCCC2COCC(=O)N2CCc3nc(-c4ccncc4)sc3C2)c(C)c1` (centres unmarked) [Example 48, 2-((1-(4-methoxy-2,6-dimethylphenylsulfonyl)piperidin-2-yl)methoxy)-1-(2-(pyridin-4-yl)-6,7-dihydrothiazolo[5,4-c]pyridin-5(4H)-yl)ethan-1-one], the figures for the inhibition at 10 µM in assay [1] and in assay [2] were 94% and 100%, respectively.

On to `O=C(CC1CCCCN1S(=O)(=O)c1cccc(C(F)(F)F)c1)N1CCc2onc(CN3CCCCC3)c2C1` (centres unmarked) [Example 05, 1-(3-(piperidin-1-ylmethyl)-6,7-dihydroisoxazolo[4,5-c]pyridin-5(4H)-yl)-2-(1-(3-(trifluoromethyl)phenylsulfonyl)piperidin-2-yl)ethanone], for which the inhibition at 10 µM turned out to be 27% in assay [1] and 48% in assay [2].

For the compound `COc1cc(C)c(S(=O)(=O)N2CCCCC2COCC(=O)N2CCc3onc(C(=O)N4CCCCC4)c3C2)c(C)c1` (centres unmarked) [Example 14, 2-((1-(4-methoxy-2,6-dimethylphenylsulfonyl)piperidin-2-yl)methoxy)-1-(3-(piperidin-1-carbonyl)-6,7-dihydroisoxazolo[4,5-c]pyridin-5(4H)-yl)ethanone], the inhibition at 10 µM in assay [1] stood at 99%; in assay [2] it was 85%.

For the compound `Cc1cc(S(=O)(=O)N2CCCCC2CCC(=O)N2CCc3sccc3C2c2ccc(Cl)nc2)c(C)cc1Cl` (centres unmarked) [Example 33, 3-(1-(4-chloro-2,5-dimethylphenylsulfonyl)piperidin-2-yl)-1-(4-(6-chloropyridin-3-yl)-6,7-dihydrothieno[3,2-c]pyridin-5(4H)-yl)propan-1-one], the figures for the inhibition at 10 µM in assay [1] and in assay [2] were 35% and 40%, respectively.

With `CCC1c2ccsc2CCN1C(=O)COCCN(C)S(=O)(=O)c1c(C)cc(OC)cc1C` (centres unmarked) [Example 18, N-(2-(2-(4-Ethyl-6,7-dihydrothieno[3,2-c]pyridin-5(4H)-yl)-2-oxoethoxy)ethyl)-4-methoxy-N,2,6-trimethyl benzenesulfonamide], the values for the inhibition at 10 µM in assay [1] and in assay [2] were 109% and 99%, respectively.

Consider `COc1cc(C)c(S(=O)(=O)N(C)CCOCC(=O)N2CCc3onc(CN4CCCCC4)c3C2)c(C)c1` [Example 13, 4-methoxy-N,2,6-trimethyl-N-(2-(2-oxo-2-(3-(piperidin-1-ylmethyl)-6,7-dihydroisoxazolo[4,5-c]pyridin-5(4H)-yl)ethoxy)ethyl)benzenesulfonamide], for which the inhibition at 10 µM is 99% in assay [1] and 56% in assay [2].

As for `COc1cc(C)c(S(=O)(=O)N2CCCCC2COCC(=O)N2CCc3onc(-c4ccncc4)c3C2)c(C)c1` (centres unmarked) [Example 02, 2-((1-(4-methoxy-2,6-dimethylphenylsulfonyl)piperidin-2-yl)methoxy)-1-(3-(pyridin-4-yl)-6,7-dihydroisoxazolo[4,5-c]pyridin-5(4H)-yl)ethanone], the inhibition at 10 µM in assay [1] turned out to be 101%; in assay [2] it was 100%.

On to `COc1cc(C)c(S(=O)(=O)N2CCCCC2COCC(=O)N2CCc3onc(CN4CCCCC4)c3C2c2ccccc2)c(C)c1` (centres unmarked) [Example 126, 2-((1-(4-Methoxy-2,6-dimethylphenylsulfonyl)piperidin-2-yl)methoxy)-1-(4-phenyl-3-(piperidin-1-ylmethyl)-6,7-dihydroisoxazolo[4,5-c]pyridin-5(4H)-yl)ethanone], for which the inhibition at 10 µM worked out at 104% in assay [1] and 90% in assay [2].

As to `O=C(C[C@@H](NS(=O)(=O)c1ccc2ccccc2c1)c1ccccc1)N1CCc2onc(-c3ccncc3)c2C1` [Example 03, I—N-(3-oxo-1-phenyl-3-(3-(pyridin-4-yl)-6,7-dihydroisoxazolo[4,5-c]pyridin-5(4H)-yl)propyl)naphthalene-2-sulfonamide], the inhibition at 10 µM in assay [1] was found to be 102%; in assay [2], 83%.

For the compound `O=C(C[C@@H](NS(=O)(=O)c1ccc2ccccc2c1)c1ccccc1)N1CCc2onc(CN3CCCCC3)c2C1` [Example 17, I—N-(3-oxo-1-phenyl-3-(3-(piperidin-1-ylmethyl)-6,7-dihydroisoxazolo[4,5-c]pyridin-5(4H)-yl)propyl)naphthalene-2-sulfonamide], the inhibition at 10 µM in assay [1] worked out at 55%; in assay [2] it was 49%.

As to `COc1cc(C)c(S(=O)(=O)N2CCCCC2CCCC(=O)N2CCc3sc(CN4CCN(C)CC4)cc3C2)c(C)c1` (centres unmarked) [Example 47, 4-(1-(4-methoxy-2,6-dimethylphenylsulfonyl)piperidin-2-yl)-1-(2-((4-methylpiperazin-1-yl)methyl)-6,7-dihydrothieno[3,2-c]pyridin-5(4H)-yl)butan-1-one], the values for the inhibition at 10 µM in assay [1] and in assay [2] were 101% and 100%, respectively.

For `Cc1cccc(Cl)c1S(=O)(=O)N(CCOCC(=O)N1CCc2sc(CN3CC(F)(F)C3)cc2C1)C1CC1` [Example 57, 2-Chloro-N-cyclopropyl-N-[2-[2-[2-[(3,3-difluoro-azetidin-1-yl)-methyl]-4,5,6,7-tetrahydro-thieno[3,2-c]pyridin-5-yl]-2-oxo-ethoxy]-ethyl]-6-methyl-benzenesulfonic acid amide], the inhibition at 10 µM in assay [1] was determined as 99%; in assay [2], 100%.

Regarding `COc1cc(C)c(S(=O)(=O)N2CCCCC2COCC(=O)N2CCc3sc(CN4CCCCC4)cc3C2)c(C)c1` (centres unmarked) [Example 27, 2-((1-(4-Methoxy-2,6-dimethylphenylsulfonyl)piperidin-2-yl)methoxy)-1-(2-(piperidin-1-ylmethyl)-6,7-dihydrothieno[3,2-c]pyridin-5(4H)-yl)ethanone], the figures for the inhibition at 10 µM in assay [1] and in assay [2] were 106% and 100%, respectively.
